Values of other authors in patent US8697743B2, “Antioxidant camptothecin derivatives and antioxidant antineoplastic nanospheres thereof” (Cedars-Sinai Medical Center, priority 2008, dated 2014).

What was measured:
[1] = 30 minutes after administration

## CC[C@@]1(O)C(=O)OCc2c1cc1n(c2=O)Cc2cc3ccccc3nc2-1 [camptothecin, (S)-4-ethyl-4-hydroxy-1H-pyrano-[3′,4′:6,7]indolizino[1,2-b]quinoline-3,14(4H,12H)-dione]
[1]
  lactone form hydrolyzed to an open ring: 50%
other
  solubility in water: essentially insoluble in water
